Experimental data taken from PubChem BioAssay AID330 (DTP/NCI, 2004).
“And” between values parts separate entries of the source, which are not always exact repeats. Identical values can stand only once. Toxic doses and inconclusive results are not listed. How the source made its calls: active means survival T/C of 150% or more; inactive means T/C below 125% in these data. Peptide text beside a SMILES is read from it. * marks the point of attachment. Trt = c1ccc(C(c2ccccc2)(c2ccccc2)*)cc1; Cbz = O=C(OCc1ccccc1)*; Bz = O=C(c1ccccc1)*

Tested on: P388 leukemia ip, CD2F1 mice, survival T/C
Test: NCI In Vivo Anticancer Drug Screen. Data for tumor model P388 Leukemia (intraperitoneal) in CD2F1 (CDF1) mice
Details: endpoint: median survival time, higher = longer survival
Procedure, shortened: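 Mice carrying the transplanted tumor received test compound or vehicle. Survival was recorded in each group, and the value is the treated-group measurement divided by that of the vehicle-treated control group.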

[1] = dose: 50.0 mg/kg/injection, schedule: Q01DX005 (ip), vehicle: Klucel (hydroxypropylcellulose) (HPC)
[2] = dose: 100.0 mg/kg/injection, schedule: Q01DX005 (ip), vehicle: Klucel (hydroxypropylcellulose) (HPC)
[3] = dose: 200.0 mg/kg/injection, schedule: Q01DX005 (ip), vehicle: Klucel (hydroxypropylcellulose) (HPC)
[4] = dose: 60.0 mg/kg/injection, schedule: Q01DX005 (ip), vehicle: saline
[5] = dose: 60.0 mg/kg/injection, schedule: Q01DX005 (ip), vehicle: Klucel (hydroxypropylcellulose) (HPC)
[6] = dose: 120.0 mg/kg/injection, schedule: Q01DX005 (ip), vehicle: Klucel (hydroxypropylcellulose) (HPC)
[7] = dose: 240.0 mg/kg/injection, schedule: Q01DX005 (ip), vehicle: Klucel (hydroxypropylcellulose) (HPC)
[8] = dose: 50.0 mg/kg/injection, schedule: Q01DX009 (ip), vehicle: saline with Tween-80
[9] = dose: 100.0 mg/kg/injection, schedule: Q01DX009 (ip), vehicle: saline with Tween-80
[10] = dose: 200.0 mg/kg/injection, schedule: Q01DX009 (ip), vehicle: saline with Tween-80
[11] = dose: 12.5 mg/kg/injection, schedule: Q01DX009 (ip), vehicle: saline
[12] = dose: 25.0 mg/kg/injection, schedule: Q01DX009 (ip), vehicle: saline
[13] = dose: 50.0 mg/kg/injection, schedule: Q01DX009 (ip), vehicle: saline
[14] = dose: 100.0 mg/kg/injection, schedule: Q04DX002 (ip), vehicle: saline with Tween-80
[15] = dose: 200.0 mg/kg/injection, schedule: Q04DX002 (ip), vehicle: saline with Tween-80
[16] = dose: 400.0 mg/kg/injection, schedule: Q04DX002 (ip), vehicle: saline with Tween-80
[17] = dose: 100.0 mg/kg/injection, schedule: Q04DX002 (ip), vehicle: Klucel (hydroxypropylcellulose) (HPC)
[18] = dose: 200.0 mg/kg/injection, schedule: Q04DX002 (ip), vehicle: Klucel (hydroxypropylcellulose) (HPC)
[19] = dose: 400.0 mg/kg/injection, schedule: Q04DX002 (ip), vehicle: Klucel (hydroxypropylcellulose) (HPC)
[20] = dose: 6.25 mg/kg/injection, schedule: Q01DX009 (ip), vehicle: saline

Measured: T/C

CCSSc1ccccc1C(=O)O
inactive: [1] 102 % of control | [2] 109 % of control | [3] 112 % of control

C[N+]1(Cc2ccccc2)C2CCC(O)C1CC2 (centres undefined)
inactive: dose: 15.0 mg/kg/injection, schedule: Q01DX005 (ip), vehicle: saline 103 % of control | dose: 30.0 mg/kg/injection, schedule: Q01DX005 (ip), vehicle: saline 100 % of control | [4] 102 % of control

Nc1[nH]c(=O)[nH]c(=O)c1N=O
inactive: [5] 101 % of control and 96 % of control | [6] 101 % of control and 108 % of control | [7] 104 % of control and 98 % of control

O=[N+]([O-])CC(OCCCCCO)C(Cl)(Cl)Cl (centres undefined)
inactive: [8] 95 % of control | [9] 100 % of control | [10] 86 % of control

C=CN1C(=O)N(C=C)C(C)(CC(C)C)C1=O (centres undefined)
inactive: [8] 100 % of control | [9] 100 % of control | [10] 112 % of control

CCCNC(=S)N/N=C(/C)CC/C(C)=N/NC(=S)NCCC
inactive: [11] 98 % of control | [12] 99 % of control | [13] 104 % of control and 86 % of control

CSCCCNC(=O)c1csc(-c2csc(CCNC(C)=O)n2)n1
inactive: [14] 98 % of control | [15] 95 % of control | [16] 97 % of control

CCn1c(=O)c2[nH]c(Cl)nc2n(CCCOC)c1=O
inactive: [17] 101 % of control | [18] 95 % of control | [19] 87 % of control

CSc1snc2c1c(=O)n(C)c(=O)n2C
inactive: dose: 25.0 mg/kg/injection, schedule: Q04DX002 (ip), vehicle: saline with Tween-80 98 % of control | dose: 50.0 mg/kg/injection, schedule: Q04DX002 (ip), vehicle: saline with Tween-80 101 % of control | [14] 99 % of control

COC(=O)C(CSC(=O)c1ccccc1)NC(=O)CNC(=O)CNC(=O)C(CCCCNC(=O)OCc1ccccc1)NC(=O)CNC(=O)C(CSC(c1ccccc1)(c1ccccc1)c1ccccc1)NC(=O)OCc1ccccc1 (centres undefined) (Cbz-C(Trt)GK(Cbz)GGC(Bz)-OMe; configuration not given here)
inactive: [5] 97 % of control | [6] 97 % of control | [7] 88 % of control

O=[N+]([O-])c1c(Cl)sc(Cl)c1[N+](=O)[O-]
inactive: dose: 1.56 mg/kg/injection, schedule: Q01DX009 (ip), vehicle: saline with Tween-80 105 % of control | dose: 3.12 mg/kg/injection, schedule: Q01DX009 (ip), vehicle: saline with Tween-80 104 % of control | dose: 6.25 mg/kg/injection, schedule: Q01DX009 (ip), vehicle: saline with Tween-80 87 % of control and 95 % of control | dose: 6.25 mg/kg/injection, schedule: Q04DX003 (ip), vehicle: saline sonified 110 % of control | dose: 12.5 mg/kg/injection, schedule: Q04DX003 (ip), vehicle: saline sonified 100 % of control | dose: 25.0 mg/kg/injection, schedule: Q04DX003 (ip), vehicle: saline sonified 100 % of control

O=C(Nc1ccccc1C(F)(F)F)c1cccc(Cl)c1
inactive: dose: 100.0 mg/kg/injection, schedule: Q04DX003 (ip), vehicle: saline + alcohol 109 % of control | dose: 200.0 mg/kg/injection, schedule: Q04DX003 (ip), vehicle: saline + alcohol 100 % of control | dose: 400.0 mg/kg/injection, schedule: Q04DX003 (ip), vehicle: saline + alcohol 100 % of control

Cc1cc(Br)ccc1N1CSC(=S)N(c2ccc(Br)cc2C)C1
inactive: dose: 50.0 mg/kg/injection, schedule: Q01DX005 (ip), vehicle: saline with Tween-80 88 % of control | dose: 100.0 mg/kg/injection, schedule: Q01DX005 (ip), vehicle: saline with Tween-80 90 % of control | dose: 200.0 mg/kg/injection, schedule: Q01DX005 (ip), vehicle: saline with Tween-80 93 % of control

O=C1CSC(c2ccco2)N1CCN1C(=O)CSC1c1ccco1 (centres undefined)
inactive: [14] 100 % of control | [15] 98 % of control | [16] 91 % of control

Cc1ccc(C2=Nc3ccccc3SC(c3cccc([N+](=O)[O-])c3)C2)cc1 (centres undefined)
inactive: dose: 3.12 mg/kg/injection, schedule: Q01DX009 (ip), vehicle: saline 90 % of control | [20] 97 % of control | [11] 88 % of control | [13] 86 % of control

O=C1SC/C(=N\N=c2/scc(-c3ccccc3)n2-c2ccccc2)N1Cc1ccccc1
inactive: [17] 90 % of control | [18] 91 % of control | [19] 88 % of control

O=[N+]([O-])c1ccc(N=Nc2ccc(N(CCO)CCO)cc2)cc1
inactive: dose: 60.0 mg/kg/injection, schedule: Q01DX005 (ip), vehicle: suspension in saline 95 % of control | dose: 120.0 mg/kg/injection, schedule: Q01DX005 (ip), vehicle: suspension in saline 97 % of control | dose: 240.0 mg/kg/injection, schedule: Q01DX005 (ip), vehicle: suspension in saline 98 % of control

Cn1cnccc1=O
inactive: [20] 102 % of control | [11] 103 % of control | [12] 106 % of control | [13] 106 % of control | dose: 100.0 mg/kg/injection, schedule: Q01DX009 (ip), vehicle: saline 103 % of control

COC(=O)C(NC(=O)C(NC(=O)c1c2nc3c(C(=O)NC(C(=O)NC(C(=O)OC)C(C)C)C(C)O)ccc(C)c3oc-2c(C)c(=O)c1N)C(C)O)C(C)C (centres undefined)
inactive: dose: 0.05 mg/kg/injection, schedule: Q01DX009 (ip), vehicle: water 117 % of control | dose: 0.1 mg/kg/injection, schedule: Q01DX009 (ip), vehicle: water 101 % of control | dose: 0.2 mg/kg/injection, schedule: Q01DX009 (ip), vehicle: water 99 % of control | dose: 0.4 mg/kg/injection, schedule: Q01DX009 (ip), vehicle: water 100 % of control | dose: 0.8 mg/kg/injection, schedule: Q01DX009 (ip), vehicle: water 99 % of control | dose: 1.6 mg/kg/injection, schedule: Q01DX009 (ip), vehicle: water 102 % of control and 90 % of control | dose: 3.2 mg/kg/injection, schedule: Q01DX009 (ip), vehicle: water 92 % of control | dose: 6.4 mg/kg/injection, schedule: Q01DX009 (ip), vehicle: water 99 % of control | dose: 12.8 mg/kg/injection, schedule: Q01DX009 (ip), vehicle: water 101 % of control

Cn1c(=O)c2c(ncn2C)n(C)c1=O.[Cl][Pt]([Cl])[Cl]
inactive: dose: 6.25 mg/kg/injection, schedule: Q01DX005 (ip), vehicle: water 116 % of control | dose: 12.5 mg/kg/injection, schedule: Q01DX005 (ip), vehicle: water 116 % of control and 124 % of control | dose: 25.0 mg/kg/injection, schedule: Q01DX005 (ip), vehicle: water 120 % of control | dose: 50.0 mg/kg/injection, schedule: Q01DX005 (ip), vehicle: water 121 % of control | dose: 100.0 mg/kg/injection, schedule: Q01DX005 (ip), vehicle: water 121 % of control

Cc1cc(O)c(C=Nc2ccc3ccccc3c2)c2c1C(=O)Oc1c(CO)c(O)c(C(=O)O)c(C=Nc3ccc4ccccc4c3)c1O2
inactive: dose: 12.5 mg/kg/injection, schedule: Q01DX005 (ip), vehicle: Klucel (hydroxypropylcellulose) (HPC) 86 % of control and 90 % of control | dose: 25.0 mg/kg/injection, schedule: Q01DX005 (ip), vehicle: Klucel (hydroxypropylcellulose) (HPC) 104 % of control | [2] 88 % of control and 92 % of control

O=c1oc2c(cc1Cl)CCCC2
inactive: [1] 96 % of control | [2] 101 % of control | [3] 103 % of control

NC(=O)N/N=C1\CC2C=CC1/C=C\C=C\2 (centres undefined)
inactive: dose: 100.0 mg/kg/injection, schedule: Q01DX001 (ip), vehicle: saline with Tween-80 100 % of control | dose: 200.0 mg/kg/injection, schedule: Q01DX001 (ip), vehicle: saline with Tween-80 106 % of control | dose: 400.0 mg/kg/injection, schedule: Q01DX001 (ip), vehicle: saline with Tween-80 106 % of control

CC(C)S(=O)(=O)n1c(N)nc2ccc(/C(=N/O)c3ccccc3)cc21
inactive: [1] 100 % of control | [2] 101 % of control | [3] 95 % of control

CN=C(N)N/N=C/COc1ccc(C)cc1
inactive: [4] 92 % of control | dose: 120.0 mg/kg/injection, schedule: Q01DX005 (ip), vehicle: saline 94 % of control

ClC(Cl)(Cl)SSC(=Nc1ccccc1)SSC(Cl)(Cl)Cl
active: [10] 155 % of control
